In publication PMC9386018, “A lymphatic-absorbed multi-targeted kinase inhibitor for myelofibrosis therapy” (Nature Communications, 2022):
“And” between values parts separate entries of the source, which are not always exact repeats. Equal entries are not always repeated.

Key:
[1] = test system: MPL^W515L mouse model of myelofibrosis; experiment: MPL^W515L MF mouse model: spleen volume by MRI (Study 1); assay type: in vivo; conditions: MPL^W515L mice; for Spleen volume to body weight ratio (mm3/g): individual animals
Protocol: Generation of the MPL^W515L mutant MF mouse model was similar to previously described methods. Briefly, female donor BALB/c mice were treated with 5-fluorouracil at 150 mg kg^−1 intraperitoneal for 5 d before harvesting bone marrow. Hematopoietic stem and progenitor cells were enriched with CD117 magnetic beads (Miltenyi Biotec), transduced with retrovirus containing MSCV-hMPL W515L-IRES-GFP, then 50,000 transduced HSPCs along with 300,000 total non-stem cells were injected intravenously into lethally irradiated female BALB/c recipients. Development of MF was evaluated by spleen volumes using MRI beginning ~14 d following bone marrow transplantation (BMT) as outlined below, continuing weekly until end of the study. Mice were separated into equal groups based on spleen size ~14–21 d post-BMT, then treated with vehicle (Maisine CC) or LP-182 at 400 mg kg^−1 daily by oral gavage for 14–28 d or until mice were euthanized using guidelines for end stage illness and humane endpoints. Untreated healthy control animals were used for experimental comparisons. Tissues were harvested and processed for flow cytometry (as described above), LCMS/MS, immuno-blotting, and histological analysis (as described in Supplementary Methods) at the defined study endpoint(s), approximately 1–2 h post-treatment with vehicle or LP-182. Briefly, blood samples were collected, transferred into K2-EDTA tubes (BD Microtainer), inverted gently to mix, then centrifuged at 2000 x g for 15 min. […] Dissection and bone marrow isolation from mouse femur and tibia was performed similar to previously described methods. Briefly, the hind limbs from mice were dissected, muscle and connective tissue removed, and bones were frozen at −80 °C. Femur and tibia were thawed separately, placed knee-end down in 18 gauge needle-pierced 0.5 mL microcentrifuge tubes nested inside 1.5 or 2 mL microcentrifuge tubes containing 1.4 mm ceramic beads (Fisher Scientific), then bone marrow was isolated by centrifugation at 10,000 x g for 1 min and processed for analysis by LCMS/MS (above; femur) or immuno-blotting (tibia). […] Soluble protein extracts were isolated by centrifugation at 15,000 x g for 15 min at 4 °C, quantified using Micro BCA protein assay (Thermo Scientific), then mixed with reducing 6X SDS-PAGE loading dye, heated for 8 min at 95 °C, and stored at −20 °C until immuno-blot analysis. Whole cell lysates were resolved by 10% SDS-PAGE, transferred to PVDF (Immobilon-P; MilliporeSigma), then membranes were blocked with 5% BSA (Equitech-Bio) in TBS containing 0.1% Tween-20 (TBST) for 1 h at room temperature with gentle orbital shaking. Membranes were incubated with primary antibodies in 5% BSA/TBST overnight at 4 °C or 5% skim milk/TBST (Lab Scientific) for 1 h at room temperature, then washed with TBST, and incubated with HRP-conjugated secondary antibodies in 5% skim milk/TBST for 1.5 h at room temperature, all with gentle platform rocking. Membranes were washed with TBST, then visualized by chemiluminescence on a BioRad ChemiDoc MP Imaging System using SuperSignal West PicoPLUS or West Femto Chemiluminescent Substrate (Thermo Scientific). Membranes were stripped using Restore PLUS Western Blot Stripping Buffer (Thermo Scientific) as per manufacturer’s instructions and re-probed with additional primary antibodies as described above. […] All antibodies were used at dilutions recommended by their specified manufacturers or optimized empirically. Additional reagents were purchased from MilliporeSigma (St. Louis, MO) unless otherwise specified. Tissues for histology were formalin-fixed, paraffin-embedded, sectioned, and stained with Hematoxylin and Eosin (H&E) to assess cellularity and tissue morphology, with Reticulin Stain Kit (Connective Tissue Stain; Abcam) to assess fibrosis, or processed for immunohistochemistry staining with GFP to assess MPL^W515L-positive cellularity. […]

[2] = test system: MPL^W515L mouse model of myelofibrosis; experiment: MPL^W515L MF mouse model: histology of spleen, liver and bone marrow; assay type: in vivo; conditions: MPL^W515L mice, oral 400 mg kg^−1 daily, 28 d
Protocol: (§1) Generation of the MPL^W515L mutant MF mouse model was similar to previously described methods. Briefly, female donor BALB/c mice were treated with 5-fluorouracil at 150 mg kg^−1 intraperitoneal for 5 d before harvesting bone marrow. Hematopoietic stem and progenitor cells were enriched with CD117 magnetic beads (Miltenyi Biotec), transduced with retrovirus containing MSCV-hMPL W515L-IRES-GFP, then 50,000 transduced HSPCs along with 300,000 total non-stem cells were injected intravenously into lethally irradiated female BALB/c recipients. Development of MF was evaluated by spleen volumes using MRI beginning ~14 d following bone marrow transplantation (BMT) as outlined below, continuing weekly until end of the study. Mice were separated into equal groups based on spleen size ~14–21 d post-BMT, then treated with vehicle (Maisine CC) or LP-182 at 400 mg kg^−1 daily by oral gavage for 14–28 d or until mice were euthanized using guidelines for end stage illness and humane endpoints. Untreated healthy control animals were used for experimental comparisons. […] Soluble protein extracts were isolated by centrifugation at 15,000 x g for 15 min at 4 °C, quantified using Micro BCA protein assay (Thermo Scientific), then mixed with reducing 6X SDS-PAGE loading dye, heated for 8 min at 95 °C, and stored at −20 °C until immuno-blot analysis. […]

[3] = test system: MPL^W515L mouse model of myelofibrosis; experiment: MPL^W515L MF mouse model: survival; assay type: in vivo; conditions: MPL^W515L mice, oral 400 mg kg^−1 daily
Protocol: as §1

[4] = test system: Caspase 3/7 activity in SET-2 cells; experiment: SET-2 Caspase activation assay (Caspase-Glo 3/7); assay type: cell-based, human; conditions: 48 h; for Relative Caspase activation: normalized to vehicle, replicates
Protocol: Viable cells were counted by CellTiter-Fluor Assay (Promega) according to manufacturer’s protocol, and all fluorescence values were corrected by a no-cell control. For Caspase activation assays, SET-2 cells were cultured for 48 h at 10^6 cells mL^−1 with various concentration of LP-182 or vehicle (DMSO). Caspase activity was measured by Caspase-Glo 3/7 assay (Promega) according to the manufacturer’s protocol, and all luminescence values were corrected by a no-cell control. Dose response proliferation and Caspase activation data was normalized to vehicle treated control cells and analyzed by non-linear regression for determination of IC50 values. Data was generated from n = 3 independent experiments performed in replicate.

In the case of O=C(NOCCOCCOCCOCCC(=O)N1CCN(c2cnc3ccc(-c4cnc(Cl)c(NS(=O)(=O)c5ccc(F)cc5)c4)cc3n2)CC1)c1ccc(F)c(F)c1Nc1ccc(I)cc1F [LP-182, N-(2-(2-(2-(3-(4-(7-(6-chloro-5-((4-fluorophenyl)sulfonamido)pyridin-3-yl)quinoxalin-2-yl)piperazin-1-yl)-3-oxopropoxy)ethoxy)ethoxy)ethoxy)-3,4-difluoro-2-((2-fluoro-4-iodophenyl)amino)benzamide], the “Spleen volume to body weight ratio (mm3/g)” value ([1]; LP-182 group, treatment length 0 d (baseline)) is reported as 31.0875 mm3/g and 17.4312 mm3/g and 19.0791 mm3/g and 34.919 mm3/g and 29.5281 mm3/g, the “Spleen volume to body weight ratio (mm3/g)” value ([1]; LP-182 group, treatment length -7 d (before treatment)) is reported as 15.1103 mm3/g and 6.53 mm3/g and 9.708 mm3/g and 8.386 mm3/g and 11.4368 mm3/g and the “reduction of spleen volume compared to vehicle” value ([1]; oral 400 mg kg^−1 daily, after 14 d) is reported as ~ 35%. For the same molecule, the “Spleen volume to body weight ratio (mm3/g)” value ([1]; oral 400 mg kg^−1 daily, treatment length 7 d) was 26.2397 mm3/g and 11.9227 mm3/g and 23.2289 mm3/g and 24.8013 mm3/g and 24.121 mm3/g, the “Spleen volume to body weight ratio (mm3/g)” value ([1]; oral 400 mg kg^−1 daily, treatment length 14 d) was 25.0148 mm3/g and 4.765 mm3/g and 27.3514 mm3/g and 25.4021 mm3/g and 32.6974 mm3/g and the “Spleen volume to body weight ratio (mm3/g)” value ([1]; oral 400 mg kg^−1 daily, treatment length 21 d) was 28.0008 mm3/g and 4.203 mm3/g and 24.753 mm3/g and 31.0963 mm3/g and 27.5586 mm3/g. For the same molecule, the “extramedullary hematopoiesis, number of MKs and MPL^W515L-positive MKs” value [2] was “reduced”, the “reticulin fibrosis in bone marrow” value [2] was “diminution of reticulin fibrosis” and the “overall survival (Kaplan-Meier)” value [3] was “significantly improved overall survival”. The “survival to planned end of study” value ([3]; 28 d treatment) was “survived 50 d post-transplant”, the “apoptotic cell death (Caspase activation)” value [4] was “initiated apoptotic cell death” and the “Relative Caspase activation” value ([4]; LP-182 5 µM) was 1.094 and 1.105 and 1.123 and 1.124 and 1.108 and 1.081. The “Relative Caspase activation” value ([4]; LP-182 10 µM) was 1.411 and 1.334 and 1.453 and 1.372 and 1.41 and 1.477, the “Relative Caspase activation” value ([4]; LP-182 20 µM) was 1.934 and 1.9571 and 1.914 and 1.975 and 2.004 and 1.977 and the “Relative Caspase activation” value ([4]; LP-182 40 µM) was 2.054 and 1.793 and 2.072 and 2.115 and 2.193 and 2.206.
